This is an account of results in PMC5824344 (ACS Chemical Biology, 2017).

One series concerns the target Rat intestinal maltase. Put plainly: Inhibition of rat intestinal maltase (natural substrate, glucose release). The series is classed as biochemical. Particulars: isolated enzyme in vitro; mean of three measurements; read-out: IC50, α-Glucosidase, Rat intestinal maltase. The procedure:
(§1) 4 Enzyme Inhibition Assays
(§2) All rat enzymes were isolated from 18-week-old, male Wistar rats, while human lysosomal α-glucosidase was obtained in commercially available form from Sanoﬁ Genzyme. Inhibition of isolated glucosidases was evaluated as described previously. 3 Brieﬂy, maltase, isomaltase, sucrase, and cellobiase were used as partially puriﬁed tissue extracts. Inhibition assays for each enzyme were performed with the respective natural substrate, and release of d-glucose measured by Glucose B-test (Wako Diagnostics). Assays of rat ER α-glucosidase II and human lysosomal α-glucosidase inhibition were conducted with α-p-nitrophenylglucoside as substrate; 400 mm Na2CO3 was added to quench these reactions, and the extent of hydrolysis was evaluated as absorbance at 400 nm by spectrophotometer.
(§3) ER α-glucosidase I inhibition assays were performed using anthranilic acid-labelled Glc3Man7GlcNAc2 as substrate. After terminating the reaction with acetonitrile, protein was removed by cen-trifugation through a 10 kDa molecular weight cut oﬀ ﬁlter. The amount of hydrolysis was then quantiﬁed by normal phase high performance liquid chromatography analysis of unreacted substrate and product (Glc2Man7GlcNAc2).4
(§4) ER α-glucosidase II inhibition assays using native-like substrates were performed using an-thranilic acid-labelled Glc2Man7GlcNAc2 as substrate. After terminating the reaction with acetonitrile, protein was removed by centrifugation through a 10 kDa molecular weight cut oﬀ ﬁlter. The amount of hydrolysis was then quantiﬁed by normal phase high performance liq-uid chromatography analysis of unreacted substrate and both products (Glc1Man7GlcNAc2

Series [1] deals with T1, Rat intestinal isomaltase (Rattus norvegicus, UniProt P23739).
T1 construct: from tissue; host or cells: intestine of male Wistar rats, partially purified extract
Put plainly: Inhibition of rat intestinal isomaltase (natural substrate, glucose release). Particulars: isolated enzyme in vitro; mean of three measurements; read-out: IC50, α-Glucosidase, Rat intestinal isomaltase. The format is biochemical. The procedure: as §1, §2, §3, §4

Series [2] deals with T2, Rat liver ER α-glucosidase II (Rattus norvegicus, UniProt A0A8I6GFL3).
T2 construct: Rat liver ER, II; from tissue; host or cells: liver of male Wistar rats
The experiment in a line: Inhibition of isolated rat liver ER α-glucosidase II (α-p-nitrophenylglucoside substrate). Particulars: isolated enzyme in vitro; read-out: IC50 with regard to GluII. The format is biochemical. The method, then: as §1, §2, §3, §4

For series [3], the target named is T3, Rat liver ER α-glucosidase I (Rattus norvegicus, UniProt O88941).
T3 construct: Rat liver ER, I; from tissue; host or cells: liver of male Wistar rats
T3 sequence (O88941 1-834): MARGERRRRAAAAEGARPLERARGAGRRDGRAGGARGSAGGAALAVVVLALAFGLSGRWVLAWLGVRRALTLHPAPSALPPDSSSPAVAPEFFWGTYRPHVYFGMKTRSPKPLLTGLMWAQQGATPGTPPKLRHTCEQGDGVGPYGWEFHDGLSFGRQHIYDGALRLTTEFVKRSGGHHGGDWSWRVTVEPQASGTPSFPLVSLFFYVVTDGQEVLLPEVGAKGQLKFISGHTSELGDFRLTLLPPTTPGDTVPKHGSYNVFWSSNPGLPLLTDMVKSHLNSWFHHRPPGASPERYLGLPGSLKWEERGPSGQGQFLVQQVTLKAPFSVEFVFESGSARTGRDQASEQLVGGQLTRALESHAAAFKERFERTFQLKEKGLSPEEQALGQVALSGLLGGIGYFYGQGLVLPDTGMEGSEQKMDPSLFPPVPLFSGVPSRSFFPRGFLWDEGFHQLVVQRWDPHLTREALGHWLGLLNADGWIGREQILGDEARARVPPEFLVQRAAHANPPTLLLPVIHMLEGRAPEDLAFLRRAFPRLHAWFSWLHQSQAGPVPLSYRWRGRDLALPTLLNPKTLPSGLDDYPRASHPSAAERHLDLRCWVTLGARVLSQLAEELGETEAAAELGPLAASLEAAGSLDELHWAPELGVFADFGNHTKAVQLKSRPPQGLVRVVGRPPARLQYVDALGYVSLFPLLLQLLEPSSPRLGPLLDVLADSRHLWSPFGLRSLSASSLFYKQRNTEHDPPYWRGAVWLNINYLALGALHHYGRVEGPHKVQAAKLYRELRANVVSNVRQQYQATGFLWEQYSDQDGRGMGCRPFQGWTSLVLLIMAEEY
Put plainly: Inhibition of isolated rat liver ER α-glucosidase I (anthranilic acid-labelled Glc3Man7GlcNAc2 substrate, HPLC). The format is biochemical. Particulars: isolated enzyme in vitro; mean of three measurements. The method, then:
as §1, §2, §3, §4

For series [4], the system named is HCV (JFH-1) in Huh7.5 cells. Put plainly: HCV antiviral assay in Huh7.5 cells (infectious titer by TCID50 assay). The series is classed as cell-based, hepatitis C virus. Particulars: MOI 2, 96 h, titration of 4 or 50 µm of 3. The method, then:
(§5) Supplemental Figure 3: Antiviral activity of 4 in human hepatoma Huh7.5 cell line.
(§6) (A) Huh7.5 cells were infected with DENV (serotype 2, strain 16681, multiplicity of infection = 0.1) and treated with a titration of ToP-DNJ 4 or 50 µm of tocopherol 3 for 48 h. Infectious virus titer was measured by plaque assay on LLC-MK2 cells. Counts were normalized to 100% for untreated samples.
(§7) DENV eﬀect at the concentrations tested. (B) Huh7.5 cells were infected with HCV (JFH-1, multiplicity of infection = 2) and treated with a titration of ToP-DNJ 4 or 50 µm tocopherol 3 for 96 h. Infectious virus titer was measured by TCID50 assay on […]
(§8) tested. In both panels, each data point represent the mean of triplicates, with error bars showing standard error of the mean (GraphPad Prism). […]
Huh7.5 cells were seeded in a 96-well plate at a density of 5× 10^3 cells/well in 100 µL growth media. […] The supernatant was harvested, and infectious viral titre assessed immediately in the TCID50 assay.
Huh7.5 cells were seeded in a 96-well plate at a density of 2× 10^4 cells/well in 100 µL of growth media and incubated for 18 h. The supernatants to be evaluated were diluted 1:10 in growth media, and 7 serial half-log10 dilutions were subsequently prepared in the same media. […]
(§9) each well was scored as either positive (≥ 5 stained cells) or negative. TCID50 values were calculated according to the method of Reed and Muench.8 […]

Details of series [5]: method as in PMID 15522126. Particulars: cited from earlier work.
The subject of series [6] is DENV (serotype 2, strain 16681) in Huh7.5 cells. Put plainly: DENV Huh7.5 antiviral assay (infectious titer by plaque assay). The format is cell-based, dengue virus. Particulars: MOI 0.1, 48 h, titration of 4 or 50 µm of 3. The method, then: as §5, §6, §7, §8, §9
(§10) The infectious DENV titres in supernatants collected were evaluated by plaque assay as described previously.9 Brieﬂy, LLC-MK2 cells were seeded in conﬂuent monolayers in a 12-well plate. Four 10-fold dilutions of each supernatant to be analyzed were prepared in minimum essential media (MEM, Gibco), supplemented with 100 µg mL−1 streptomycin, 100 U mL−1 penicillin and 10% (v/v) FCS. […]
(§11) After 1 d, plaques were observed and counted from the underside of the plate by eye. […]

Series [7] concerns DENV2 strain 16681 in primary human MDMΦ. The experiment in a line: DENV primary MDMΦ antiviral assay (infectious titer by plaque assay). Particulars: dengue-infected MDMΦ, 7 donors. The format is cell-based, dengue virus. The method, then: each well was scored as either positive (≥ 5 stained cells) or negative. TCID50 values were calculated according to the method of Reed and Muench.8
5.7 DENV Primary MDMΦ Antiviral Assay
DENV2 strain 16681 (a gift from Prof. E. Gould, Centre for Ecology and Hydrology, Oxford, United Kingdom) was propagated in the C6/36 cell line. In the antiviral assay, MDMΦ cells (7 donors) were seeded in a 24-well plate at a density of 1× 10^6 cells/well in 1 mL of growth media. The cells were inoculated for 2 h with DENV2 16681 strain at an MOI of 1. […]
as §10, §11
18 healthy male BALB/c mice (8 – 12 weeks old) weighing between 20 and 35 g were procured from ACTREC, Mumbai, India. […] Temperature and humidity were recorded by an auto-controlled data logging system and maintained at 22± 3◦C and 55± 15% humidity, respectively. […]

Each structure is given as a SMILES string.

T1 sequence (P23739 whole entry): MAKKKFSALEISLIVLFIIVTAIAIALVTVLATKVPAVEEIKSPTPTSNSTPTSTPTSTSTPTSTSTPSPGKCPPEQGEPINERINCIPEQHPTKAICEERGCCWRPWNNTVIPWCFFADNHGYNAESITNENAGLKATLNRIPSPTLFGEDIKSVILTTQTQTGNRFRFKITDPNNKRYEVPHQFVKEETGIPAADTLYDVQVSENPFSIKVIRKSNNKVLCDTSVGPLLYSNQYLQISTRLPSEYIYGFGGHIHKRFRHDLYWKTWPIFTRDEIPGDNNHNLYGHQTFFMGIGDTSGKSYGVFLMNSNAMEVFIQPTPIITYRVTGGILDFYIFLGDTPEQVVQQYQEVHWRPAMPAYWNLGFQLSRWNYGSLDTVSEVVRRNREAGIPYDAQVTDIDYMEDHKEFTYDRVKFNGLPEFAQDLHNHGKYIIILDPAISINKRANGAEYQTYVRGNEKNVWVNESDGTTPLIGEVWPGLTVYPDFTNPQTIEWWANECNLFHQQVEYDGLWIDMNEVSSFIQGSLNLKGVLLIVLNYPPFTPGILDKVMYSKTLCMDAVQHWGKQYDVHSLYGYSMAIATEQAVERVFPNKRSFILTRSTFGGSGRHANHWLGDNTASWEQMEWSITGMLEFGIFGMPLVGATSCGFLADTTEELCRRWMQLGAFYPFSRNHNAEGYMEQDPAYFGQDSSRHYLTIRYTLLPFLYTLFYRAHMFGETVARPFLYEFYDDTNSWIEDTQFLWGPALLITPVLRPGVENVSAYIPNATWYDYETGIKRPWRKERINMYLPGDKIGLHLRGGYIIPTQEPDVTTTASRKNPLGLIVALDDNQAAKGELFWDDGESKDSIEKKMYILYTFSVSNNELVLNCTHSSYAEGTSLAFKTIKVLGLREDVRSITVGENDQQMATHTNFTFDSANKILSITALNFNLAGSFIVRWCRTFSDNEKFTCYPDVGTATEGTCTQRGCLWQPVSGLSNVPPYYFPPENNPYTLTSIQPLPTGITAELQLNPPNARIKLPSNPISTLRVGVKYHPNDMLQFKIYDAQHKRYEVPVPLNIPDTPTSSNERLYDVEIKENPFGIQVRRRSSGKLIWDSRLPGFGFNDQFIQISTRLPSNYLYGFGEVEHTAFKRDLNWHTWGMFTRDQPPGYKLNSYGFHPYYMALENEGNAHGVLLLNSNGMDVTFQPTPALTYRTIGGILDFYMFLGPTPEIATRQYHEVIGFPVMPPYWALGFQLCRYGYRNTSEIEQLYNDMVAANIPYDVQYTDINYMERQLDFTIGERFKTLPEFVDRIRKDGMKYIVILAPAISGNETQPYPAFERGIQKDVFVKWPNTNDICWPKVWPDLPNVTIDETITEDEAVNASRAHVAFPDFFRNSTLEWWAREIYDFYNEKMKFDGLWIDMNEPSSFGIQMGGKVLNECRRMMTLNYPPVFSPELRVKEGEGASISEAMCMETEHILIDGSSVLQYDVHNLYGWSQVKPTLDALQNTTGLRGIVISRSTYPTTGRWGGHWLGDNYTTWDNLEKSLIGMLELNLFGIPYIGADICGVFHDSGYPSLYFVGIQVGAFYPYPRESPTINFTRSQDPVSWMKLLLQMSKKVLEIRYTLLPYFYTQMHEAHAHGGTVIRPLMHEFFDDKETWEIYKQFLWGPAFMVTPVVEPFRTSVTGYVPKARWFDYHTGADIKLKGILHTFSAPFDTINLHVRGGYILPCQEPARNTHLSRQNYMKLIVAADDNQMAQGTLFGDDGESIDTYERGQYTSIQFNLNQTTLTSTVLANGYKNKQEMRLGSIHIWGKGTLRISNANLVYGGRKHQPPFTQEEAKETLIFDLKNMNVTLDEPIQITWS
T2 sequence (A0A8I6GFL3 33-944): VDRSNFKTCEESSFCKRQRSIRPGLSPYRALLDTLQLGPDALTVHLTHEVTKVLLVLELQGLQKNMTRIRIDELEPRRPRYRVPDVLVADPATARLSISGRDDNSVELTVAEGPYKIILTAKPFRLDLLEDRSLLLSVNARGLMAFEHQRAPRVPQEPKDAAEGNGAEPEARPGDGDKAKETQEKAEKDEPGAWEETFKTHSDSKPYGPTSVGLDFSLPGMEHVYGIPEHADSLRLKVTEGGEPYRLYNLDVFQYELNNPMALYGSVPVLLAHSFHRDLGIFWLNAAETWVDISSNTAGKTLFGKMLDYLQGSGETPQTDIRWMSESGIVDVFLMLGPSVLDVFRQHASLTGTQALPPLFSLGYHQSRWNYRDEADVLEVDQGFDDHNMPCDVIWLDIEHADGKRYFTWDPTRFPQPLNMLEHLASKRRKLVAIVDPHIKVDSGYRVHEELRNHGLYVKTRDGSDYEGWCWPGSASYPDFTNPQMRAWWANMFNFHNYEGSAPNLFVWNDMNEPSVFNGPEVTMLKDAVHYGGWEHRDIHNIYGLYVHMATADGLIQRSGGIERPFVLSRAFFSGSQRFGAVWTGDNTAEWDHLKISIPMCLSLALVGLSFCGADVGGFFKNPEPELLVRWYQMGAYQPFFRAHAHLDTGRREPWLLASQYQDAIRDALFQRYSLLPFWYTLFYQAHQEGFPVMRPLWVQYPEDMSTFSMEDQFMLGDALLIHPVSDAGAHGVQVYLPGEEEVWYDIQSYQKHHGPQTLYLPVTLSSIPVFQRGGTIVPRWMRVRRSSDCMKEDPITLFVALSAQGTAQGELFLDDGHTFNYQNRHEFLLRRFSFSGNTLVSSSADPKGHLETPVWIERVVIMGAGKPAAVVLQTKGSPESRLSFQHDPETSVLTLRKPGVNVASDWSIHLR
T2 sequence (A0A8I6ADW9 1-525 partner): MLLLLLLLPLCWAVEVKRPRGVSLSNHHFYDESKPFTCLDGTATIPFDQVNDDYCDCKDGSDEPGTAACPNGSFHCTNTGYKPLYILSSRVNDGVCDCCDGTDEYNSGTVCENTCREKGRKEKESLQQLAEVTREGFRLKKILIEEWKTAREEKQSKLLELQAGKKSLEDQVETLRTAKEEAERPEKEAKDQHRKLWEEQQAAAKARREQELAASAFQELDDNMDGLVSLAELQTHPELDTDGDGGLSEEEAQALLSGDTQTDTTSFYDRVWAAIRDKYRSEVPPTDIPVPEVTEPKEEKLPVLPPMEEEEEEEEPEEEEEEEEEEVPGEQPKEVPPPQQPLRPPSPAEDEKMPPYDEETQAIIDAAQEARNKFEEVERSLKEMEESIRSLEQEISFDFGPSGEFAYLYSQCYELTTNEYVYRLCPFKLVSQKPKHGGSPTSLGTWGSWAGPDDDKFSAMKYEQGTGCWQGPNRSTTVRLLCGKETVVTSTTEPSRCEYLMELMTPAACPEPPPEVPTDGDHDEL

What is called IC50 is the point on the concentration scale where inhibition reaches its midpoint. Consider `OC[C@H]1NC[C@H](O)[C@@H](O)[C@@H]1O` [Compound 1, D-1-deoxynojirimycin, reference compound], for which the IC50 came to 160 nM at Rat intestinal maltase, 790 nM in series [1], 16000 nM in series [2] and 2200 nM in series [3].
Regarding `Cc1c(C)c2c(c(C)c1O)CCC(C)(CCCC(C)CCCC(C)CCCC(C)C)O2` [Compound 3, D-(+)-α-tocopherol, reference compound], the “anti-HCV effect (infectious virus titer)” value in series [4] was “Neither 4 nor 3 showed an anti-HCV eﬀect”. Besides, the “increase of plasma levels when consumed with a lipid-rich meal” value in series [5] was 10 fold. The “anti-DENV effect (infectious virus titer)” value in series [6] is “Neither 4 nor 3 showed an anti-”. In addition, the “antiviral effect on infectious virus titer” value in series [7] was “no antiviral effect”.
